Reference: patent US20250230193A1, “CYCLIC COMPOUND HAVING SELECTIVE KRAS INHIBITORY EFFECT ON HRAS AND NRAS” (CHUGAI SEIYAKU KABUSHIKI KAISHA, priority 2022, published 2025)

How the values were obtained:
[1] = target: GDP-bound HRAS wild-type protein (Homo sapiens, UniProt P01112); experiment: Binding to HRAS by surface plasmon resonance (SPR), Single Cycle Kinetics; details: SPR, GDP-bound HRAS wild-type vs GDP-bound KRAS wild-type
[2] = target: GDP-bound NRAS wild-type protein (Homo sapiens, UniProt P01111); experiment: Binding to NRAS by surface plasmon resonance (SPR), Single Cycle Kinetics; details: SPR, GDP-bound NRAS wild-type vs GDP-bound KRAS wild-type
Chain of GDP-bound NRAS wild-type protein (P01111 whole entry): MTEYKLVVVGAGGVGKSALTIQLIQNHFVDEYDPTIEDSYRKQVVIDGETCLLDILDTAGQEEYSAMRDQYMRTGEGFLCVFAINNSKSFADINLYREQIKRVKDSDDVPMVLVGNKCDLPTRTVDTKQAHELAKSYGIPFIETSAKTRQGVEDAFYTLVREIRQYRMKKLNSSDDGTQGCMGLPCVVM

Chain of GDP-bound HRAS wild-type protein (P01112 whole entry): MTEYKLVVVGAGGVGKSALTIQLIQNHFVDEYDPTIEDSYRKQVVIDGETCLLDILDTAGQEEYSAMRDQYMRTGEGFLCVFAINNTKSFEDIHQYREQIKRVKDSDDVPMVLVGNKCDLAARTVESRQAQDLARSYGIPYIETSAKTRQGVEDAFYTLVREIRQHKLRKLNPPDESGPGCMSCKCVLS

SMILES | HRAS/KRAS (ratio of KD value with respect to HRAS to KD value with respect to KRAS) [1] | NRAS/KRAS (ratio of KD value with respect to NRAS to KD value with respect to KRAS) [2]
CCCOC[C@H]1C(=O)N[C@@H]([C@@H](C)OCC)C(=O)N2CCC[C@H]2C(=O)N(C)[C@H]2C/C=C\CCN(C2=O)[C@@H](Cc2ccc(C)cc2)C(=O)N(C)CC(=O)N[C@@H](CCc2ccc(C(F)(F)F)c(OC)c2)C(=O)N2C[C@@H](C)C[C@H]2C(=O)NC2(CC(C)(C)C2)C(=O)N(C)[C@@H](C2CCCC2)C(=O)N(C)[C@H](C(=O)N(C)CC)CC(=O)N1C [PP2431] | A (a compound having 10 or more and less than 20 is denoted as A) | A (a compound having 10 or more and less than 20 is denoted as A)
CCCOC[C@H]1C(=O)N[C@@H]([C@@H](C)OCC)C(=O)N2CCC[C@H]2C(=O)N(C)[C@H]2C/C=C\CCN(C2=O)[C@@H](Cc2ccc(C)cc2)C(=O)N(C)CC(=O)N[C@@H](CCc2cc(F)c(C(F)(F)F)c(F)c2)C(=O)N2C[C@H](OCC)C[C@H]2C(=O)NC2(CC(C)(C)C2)C(=O)N(C)[C@@H](C2CCCC2)C(=O)N(C)[C@H](C(=O)N(C)CC)CC(=O)N1C [PP2432] | A (a compound having 10 or more and less than 20 is denoted as A) | A (a compound having 10 or more and less than 20 is denoted as A)
CCOC[C@H]1C(=O)N[C@@H]([C@@H](C)OCC)C(=O)N2CCC[C@H]2C(=O)N(C)[C@H]2C/C=C\CCN(C2=O)[C@@H](Cc2ccc(C)cc2)C(=O)N(C)CC(=O)N[C@@H](CCc2ccc(C(F)(F)F)c(OC)c2)C(=O)N2C[C@@H](C)C[C@H]2C(=O)NC2(CC(C)(C)C2)C(=O)N(C)[C@@H](C2CCCC2)C(=O)N(C)[C@H](C(=O)N(C)CC)CC(=O)N1C [PP2433] | A (a compound having 10 or more and less than 20 is denoted as A) | AA (a compound having 20 or more is denoted as AA)
CCCO[C@H](C)[C@@H]1NC(=O)[C@H](COCC)N(C)C(=O)C[C@@H](C(=O)N(C)CC)N(C)C(=O)[C@H](C2CCCC2)N(C)C(=O)C2(CC(C)(C)C2)NC(=O)[C@@H]2C[C@@H](OCC)CN2C(=O)[C@H](CCc2cc(F)c(C(F)(F)F)c(F)c2)NC(=O)CN(C)C(=O)[C@H](Cc2ccc(C)cc2)N2CC/C=C\C[C@@H](C2=O)N(C)C(=O)[C@@H]2CCCN2C1=O [PP2436] | A (a compound having 10 or more and less than 20 is denoted as A) | A (a compound having 10 or more and less than 20 is denoted as A)
CC[C@H](C)[C@@H]1NC(=O)[C@H](COC)N(C)C(=O)C[C@@H](C(=O)N(C)CC)N(C)C(=O)[C@H](C2CCCC2)N(C)C(=O)C2(CC(C)(C)C2)NC(=O)[C@@H]2C[C@H](C)CN2C(=O)[C@H](CCc2cc(F)c(C(F)(F)F)c(F)c2)NC(=O)CN(C)C(=O)[C@H](Cc2ccc(C)cc2)N2CC/C=C\C[C@@H](C2=O)N(C)C(=O)CN(C)C1=O [PP2437] | A (a compound having 10 or more and less than 20 is denoted as A) | A (a compound having 10 or more and less than 20 is denoted as A)
CCO[C@@H]1C[C@H]2C(=O)NC3(CC(C)(C)C3)C(=O)N(C)[C@@H](C(CC)CC)C(=O)N(C)[C@H](C(=O)N(C)C)CC(=O)N(C)[C@@H](COC)C(=O)N[C@@H]([C@@H](C)CC)C(=O)N(C)CC(=O)N(C)[C@H]3C/C=C\CCN(C3=O)[C@@H](CC3CCC(F)(F)CC3)C(=O)N(C)CC(=O)N[C@@H](CCc3ccc(C(F)(F)F)c(OC)c3)C(=O)N2C1 [PP2438] | A (a compound having 10 or more and less than 20 is denoted as A) | A (a compound having 10 or more and less than 20 is denoted as A)
CCOC[C@H]1C(=O)N[C@@H]([C@@H](C)CC)C(=O)N(C)CC(=O)N(C)[C@H]2C/C=C\CCN(C2=O)[C@@H](Cc2ccc(C)cc2)C(=O)N(C)CC(=O)N[C@@H](CCc2cc(F)c(C(F)(F)F)c(F)c2)C(=O)N2C[C@@H](C)C[C@H]2C(=O)NC2(CC(C)(C)C2)C(=O)N(C)[C@@H](C2CCCC2)C(=O)N(C)[C@H](C(=O)N(C)C)CC(=O)N1C [PP2439] | A (a compound having 10 or more and less than 20 is denoted as A) | A (a compound having 10 or more and less than 20 is denoted as A)
CCO[C@@H]1C[C@H]2C(=O)NC3(CC(C)(C)C3)C(=O)N(C)[C@@H](C(CC)CC)C(=O)N(C)[C@H](C(=O)N(C)C)CC(=O)N(C)[C@@H](COC)C(=O)N[C@@H]([C@@H](C)CC)C(=O)N(C)CC(=O)N(C)[C@H]3C/C=C\CCN(C3=O)[C@@H](CC3CCC(F)(F)CC3)C(=O)N(C)CC(=O)N[C@@H](CCc3cc(F)c(C(F)(F)F)c(F)c3)C(=O)N2C1 [PP2440] | A (a compound having 10 or more and less than 20 is denoted as A) | A (a compound having 10 or more and less than 20 is denoted as A)
CC[C@H](C)[C@@H]1NC(=O)[C@H](COC)N(C)C(=O)C[C@@H](C(=O)N(CC)CC)N(C)C(=O)[C@H](C2CCCC2)N(C)C(=O)C2(CC(C)(C)C2)NC(=O)[C@@H]2C[C@H](C)CN2C(=O)[C@H](CCc2ccc(C(F)(F)F)c(OC)c2)NC(=O)CN(C)C(=O)[C@H](Cc2ccc(C)cc2)N2CC/C=C\C[C@@H](C2=O)N(C)C(=O)CN(C)C1=O [PP2441] | A (a compound having 10 or more and less than 20 is denoted as A) | AA (a compound having 20 or more is denoted as AA)
CCC(CC)[C@H]1C(=O)N(C)[C@H](C(=O)N(C)C)CC(=O)N(C)[C@@H](COC)C(=O)N[C@@H]([C@@H](C)CC)C(=O)N(C)CC(=O)N(C)[C@H]2C/C=C\CCN(C2=O)[C@@H](CC2CCC(F)(F)CC2)C(=O)N(C)CC(=O)N[C@@H](CCc2ccc(C(F)(F)F)c(OC)c2)C(=O)N2C[C@@H](C)C[C@H]2C(=O)NC2(CC(C)(C)C2)C(=O)N1C [PP2442] | A (a compound having 10 or more and less than 20 is denoted as A) | A (a compound having 10 or more and less than 20 is denoted as A)
CCO[C@@H]1C[C@H]2C(=O)NC3(CC(C)(C)C3)C(=O)N(C)[C@@H](C(CC)CC)C(=O)N(C)[C@H](C(=O)N(C)C)CC(=O)N(C)[C@@H](COC)C(=O)N[C@@H]([C@@H](C)CC)C(=O)N(C)CC(=O)N(C)[C@H]3C/C=C\CCN(C3=O)[C@@H](CC3CCC(F)(F)CC3)C(=O)N(C)CC(=O)N[C@@H](CCc3ccc(C(F)(F)F)c(Cl)c3)C(=O)N2C1 [PP2444] | A (a compound having 10 or more and less than 20 is denoted as A) | A (a compound having 10 or more and less than 20 is denoted as A)
CCOC[C@H]1C(=O)N[C@@H]([C@@H](C)CC)C(=O)N(C)CC(=O)N(C)[C@H]2C/C=C\CCN(C2=O)[C@@H](Cc2ccc(C)cc2)C(=O)N(C)CC(=O)N[C@@H](CCc2ccc(C(F)(F)F)c(OC)c2)C(=O)N2C[C@H](OCC)C[C@H]2C(=O)NC2(CC(C)(C)C2)C(=O)N(C)[C@@H](C2CCCC2)C(=O)N(C)[C@H](C(=O)N(C)CC)CC(=O)N1C [PP2445] | B (a compound having 3 or more and less than 10 is denoted as B) | A (a compound having 10 or more and less than 20 is denoted as A)
CCOC[C@H]1C(=O)N[C@@H]([C@@H](C)CC)C(=O)N(C)CC(=O)N(C)[C@H]2C/C=C\CCN(C2=O)[C@@H](CC2CCC(F)(F)CC2)C(=O)N(C)CC(=O)N[C@@H](CCc2ccc(C(F)(F)F)c(OC)c2)C(=O)N2C[C@H](OCC)C[C@H]2C(=O)NC2(CC(C)(C)C2)C(=O)N(C)[C@@H](C(CC)CC)C(=O)N(C)[C@H](C(=O)N(C)C)CC(=O)N1C [PP2446] | A (a compound having 10 or more and less than 20 is denoted as A) | A (a compound having 10 or more and less than 20 is denoted as A)
CCCOC[C@H]1C(=O)N[C@@H]([C@@H](C)CC)C(=O)N(C)CC(=O)N(C)[C@H]2C/C=C\CCN(C2=O)[C@@H](Cc2ccc(C)cc2)C(=O)N(C)CC(=O)N[C@@H](CCc2ccc(C(F)(F)F)c(OC)c2)C(=O)N2C[C@@H](C)C[C@H]2C(=O)NC2(CC(C)(C)C2)C(=O)N(C)[C@@H](C2CCCC2)C(=O)N(C)[C@H](C(=O)N(C)C)CC(=O)N1C [PP2447] | B (a compound having 3 or more and less than 10 is denoted as B) | A (a compound having 10 or more and less than 20 is denoted as A)
CCC(CC)[C@H]1C(=O)N(C)[C@H](C(=O)N(C)C)CC(=O)N(C)[C@@H](COC)C(=O)N[C@@H]([C@@H](C)CC)C(=O)N(C)CC(=O)N(C)[C@H]2C/C=C\CCN(C2=O)[C@@H](CC2CCC(F)(F)CC2)C(=O)N(C)CC(=O)N[C@@H](CCc2cc(F)c(C(F)(F)F)c(F)c2)C(=O)N2C[C@@H](C)C[C@H]2C(=O)NC2(CC(C)(C)C2)C(=O)N1C [PP2448] | A (a compound having 10 or more and less than 20 is denoted as A) | A (a compound having 10 or more and less than 20 is denoted as A)
CCCOC[C@H]1C(=O)N[C@@H]([C@@H](C)CC)C(=O)N(C)CC(=O)N(C)[C@H]2C/C=C\CCN(C2=O)[C@@H](Cc2ccc(C)cc2)C(=O)N(C)CC(=O)N[C@@H](CCc2ccc(C(F)(F)F)c(OC)c2)C(=O)N2C[C@H](OCC)C[C@H]2C(=O)NC2(CC(C)(C)C2)C(=O)N(C)[C@@H](C2CCCC2)C(=O)N(C)[C@H](C(=O)N(C)C)CC(=O)N1C [PP2449] | A (a compound having 10 or more and less than 20 is denoted as A) | A (a compound having 10 or more and less than 20 is denoted as A)
